Assay results as given in patent US8093273B2, “Flavanoids and isoflavanoids for the prevention and treatment of cardiovascular diseases” (Resverlogix Corp., priority 2004, dated 2012).

What was measured:
human ApoA-I promoter [1] = assay: ApoA-I promoter induction in HepG2 liver cells (pAI.474-Luc luciferase reporter); format: cell-based; settings: average values at 15 μM, 48 hours incubation
Experimental: This study determined whether compounds of the invention have an effect on ApoA-I promoter activity expression in HepG2 cells, a liver cell line. Cells were grown under conditions recommended by the ATCC and summarized by Wong.
The promoter region of the gene encoding human ApoA-I was isolated and ligated upstream the structure gene of firefly luciferase to construct a reporter plasmid (pAI.474-Luc). The reporter plasmid, along with pRSV-β-galactosidase (as a control for transfection efficiency), were co-transfected into HepG2 cells. The cells were then incubated in an MEM selection media containing 20% fetal calf serum supplemented with G418 (final concentration: 0.5 mg/mL, Gibco) to give established strains that stably express from the reporter gene. The strains were seeded to a 6-well culture plates and incubated for 48 hours at 37° C. under 5% carbon dioxide. Cells were starved for 24 hrs in MEM selection media containing 0.5% FBS. Then, a solution of the compounds of the invention in DMSO (or other appropriate solvent) was added to the wells at a final concentration of 0 to 100 μM in MEM selection media containing 0.5% FBS.
After further incubation for 48 hours, the cells were harvested and lysed using Reporter Lysis Buffer (PROMEGA E3971), and 50 μL of luciferase assay reagent (PROMEGA E4550 Luciferase Reporter 1000 assay system) were added to measure luciferase activity with a luminometer (Fluoroskan Ascent FL from Thermo electron Corporation). Luciferase activity was normalized to lysate protein concentrations, measured using Bradford Reagent (Biorad Protein Assay reagent Cat #500-0006).

human ApoA-I promoter [2] = assay: ApoA-I promoter induction in Caco-2 intestinal cells (pAI.474-Luc luciferase reporter); format: cell-based; settings: Caco-2 cells, 15 μM, 48 hours incubation, luciferase activity vs control samples
Outline: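 Caco-2 cells stably carrying the human ApoA-I promoter–firefly luciferase construct (pAI.474-Luc) were starved 24 h in 0.5% FBS medium, then exposed to compound at 0 to 100 μM final for 48 h at 37° C. Luciferase activity in lysates was normalized to Bradford protein and compared with solvent-only and untreated controls.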

For `O=c1cc(-c2ccc(O)cc2)oc2ncccc12` [Example 34, 2-(4-Hydroxy-phenyl)-pyrano[2,3-b]pyridin-4-one], the “ApoA-I Promoter Induction” value (human ApoA-I promoter [1]) was “increased” and the “ApoA-I Promoter Induction” value (human ApoA-I promoter [2]) was “increased”.
